# Data published in US12570647B2 (Saint Louis University, priority 2021, dated 2026).
# System: S. aureus ATCC25923
# Test: S. aureus MIC80 determination, broth microdilution (CLSI) in CAMHB
# Format: cell-based
# Conditions: Staphylococcus aureus, ATCC25923; Table 1; S. aureus ATCC 25923; growth inhibition ≥80% vs vehicle, 16-24 h; read-out: ATCC 25923 MIC80
# Procedure: S. Aureus MIC80 determinations in S. aureus ATCC25923 or in multidrug-resistant strains AR215, AR217 and AR255. MIC80's were determined by the broth microdilution method recommended by the Clinical and Laboratory Standards Institute (CLSI) in Cation-adjusted Mueller-Hinton broth (CAMHB). (Cao et al., 2018). In the preliminary screening, three compound concentrations were used: 5.8, 20.4, and 71.4 μM; for quantitative MIC80 measurements, a 1.5-fold dilution series of the compounds was prepared in CAMHB. Overnight bacterial culture was added to the diluted compounds in a 96-well plate after adjusting the bacterial concentration to achieve a 5×10^5 CFU/mL final concentration. After 16-24 h incubation at 35±2° C., the plates were read at 600 nm in a microplate reader. The MIC80 was defined as the concentration of an antibacterial agent that inhibited bacteria growth ≥80% compared to vehicle-treated control cultures. All values were determined at least twice independently, and the average number is reported.
row,Compound,MIC80 [µM]
1,"NCc1cccc2sc(N(CCCn3ccnc3)C(=O)C3CCC3)nc12 [Example 47, N-[4-(aminomethyl)-1,3-benzothiazol-2-yl]-N-[3-(1H-imidazol-1-yl)propyl]cyclobutanecarboxamide]",> 100
2,"Cc1cc(Cl)cc2sc(N3CCNCC3)nc12 [Example 30, 6-chloro-4-methyl-2-(piperazin-1-yl)-1,3-benzothiazole]",100
3,Cc1cc(Cl)cc2sc(N3CCC(CNC(=O)OC(C)(C)C)CC3)nc12 [Example 57],> 100
4,"NCc1ccc2nc(N(CCCn3ccnc3)C(=O)C3CCC3)sc2c1 [Example 50, N-[6-(aminomethyl)-1,3-benzothiazol-2-yl]-N-[3-(1H-imidazol-1-yl)propyl]cyclobutanecarboxamide]",> 100
5,"Cc1cc(Cl)cc2sc(N(CC3CCN(C)CC3)C(=O)C3CCC3)nc12 [Example 38, N-(6-chloro-4-methyl-1,3-benzothiazol-2-yl)-N-[(1-methylpiperidin-4-yl)methyl]cyclobutanecarboxamide]",> 100
6,Cc1cc(Cl)cc2sc(N3CCN(C(=O)OC(C)(C)C)CC3)nc12 [Example 59],> 100
7,Cc1cc(Cl)cc2sc(N(CC3CCN(C(=O)OC(C)(C)C)CC3)C(=O)C3CCC3)nc12 [Example 56],> 100
8,"Cc1cc(Cl)cc2sc(N(CC3CCCNC3)C(=O)C3CC3)nc12 (stereo not drawn) [Example 42, N-(6-chloro-4-methyl-1,3-benzothiazol-2-yl)-N-[(piperidin-3-yl)methyl]cyclopropanecarboxamide]",66.7
9,Cc1cc(Cl)cc2sc(NC(=O)c3ccco3)nc12 [Example 62],> 100
10,"CC(=O)N1CCN(c2nc3c(C)cc(Cl)cc3s2)CC1 [Example 31, 1-(4-(6-chloro-4-methylbenzo[d]thiazol-2-yl)piperazin-1-yl)ethan-1-one]",> 100
11,"O=C(C1CC1)N(CCCn1ccnc1)c1nc2ccc(Cl)nc2s1 [Example 53, N-{5-chloro-[1,3]thiazolo[5,4-b]pyridin-2-yl}-N-[3-(1H-imidazol-1-yl)propyl]cyclopropanecarboxamide]",> 100
12,Cc1cc(Cl)cc2sc(N3CCC(NC(=O)OC(C)(C)C)CC3)nc12 [Example 58],> 100
13,"Cc1cc(Cl)cc2sc(N3CCCC(Cn4ccnc4)C3)nc12 (stereo not drawn) [Example 35, 6-chloro-2-{3-[(1H-imidazol-1-yl)methyl]piperidin-1-yl}-4-methyl-1,3-benzothiazole]",66.7
14,"NCc1ccc2nc(N(CCCn3ccnc3)C(=O)c3ccco3)sc2c1 [Example 49, N-[6-(aminomethyl)-1,3-benzothiazol-2-yl]-N-[3-(1H-imidazol-1-yl)propyl]furan-2-carboxamide]",> 100
15,NCc1ccc2nc(N(CCCn3ccnc3)C(=O)C3CC3)sc2c1 [Example 51],> 100
16,"Cc1cc(Cl)cc2sc(N3CCC(O)CC3)nc12 [Example 32, 1-(6-chloro-4-methylbenzo[d]thiazol-2-yl)piperidin-4-ol]",> 100

# Now from value to compound:
row,MIC80 [µM],Compound
1,3.9,"Cc1cc(Cl)cc2sc(N(CCCn3ccnc3)Cc3ccccc3)nc12 [Example 26, N-(3-(1H-imidazol-1-yl)propyl)-N-benzyl-6-chloro-4-methylbenzo[d]thiazol-2-amine]"
2,2.6,"Cc1cc(Cl)cc2sc(N(CCCn3ccnc3)C(=O)/C=C/c3ccco3)nc12 [Example 6, (E)-N-(3-(1H-imidazol-1-yl)propyl)-N-(6-chloro-4-methylbenzo[d]thiazol-2-yl)-3-(furan-2-yl)acrylamide]"
3,1.7,"Cc1cc(Cl)cc2sc(N(CCCn3ccnc3)C(=O)C3CC3)nc12 [Example 10, N-(3-(1H-imidazol-1-yl)propyl)-N-(6-chloro-4-methylbenzo[d]thiazol-2-yl)cyclopropanecarboxamide]"
4,3.9,"Cc1cc(Cl)cc2sc(N(CCCn3ccnc3)S(=O)(=O)c3ccccc3)nc12 [Example 23, N-(3-(1H-imidazol-1-yl)propyl)-N-(6-chloro-4-methylbenzo[d]thiazol-2-yl)benzenesulfonamide]"
5,> 100,"Cc1cc(Cl)cc2sc(N(CCCn3ccnc3)C(=O)CN)nc12 [Example 36, 2-amino-N-(6-chloro-4-methyl-1,3-benzothiazol-2-yl)-N-[3-(1H-imidazol-1-yl)propyl]acetamide]"
6,8.8,"Cc1cc(Cl)cc2sc(N(CCCn3ccnc3)C(=O)c3cc4ccccc4o3)nc12 [Example 13, N-(3-(1H-imidazol-1-yl)propyl)-N-(6-chloro-4-methylbenzo[d]thiazol-2-yl)benzofuran-2-carboxamide]"
7,1.7,"Cc1cc(Cl)cc2sc(N(CCCn3ccnc3)C(=O)c3ccco3)nc12 [Example 2, N-(3-(1H-imidazol-1-yl)propyl)-N-(6-chloro-4-methylbenzo[d]thiazol-2-yl)furan-2-carboxamide]"
8,6.6,"Cc1cc(Cl)cc2sc(N(CCCn3ccnc3)CC3CC3)nc12 [Example 27, N-(3-(1H-imidazol-1-yl)propyl)-6-chloro-N-(cyclopropylmethyl)-4-methylbenzo[d]thiazol-2-amine]"
9,> 100,"Cc1cc(Cl)cc2sc(N(CCCn3ccnc3)C(=O)c3ccc(C(=O)O)cc3)nc12 [Example 12, 4-((3-(1H-imidazol-1-yl)propyl)(6-chloro-4-methylbenzo[d]thiazol-2-yl)carbamoyl)benzoic acid]"
10,3.9,"Cc1cc(Cl)cc2sc(N(CCCn3ccnc3)S(=O)(=O)c3cccs3)nc12 [Example 22, N-(3-(1H-imidazol-1-yl)propyl)-N-(6-chloro-4-methylbenzo[d]thiazol-2-yl)thiophene-2-sulfonamide]"
11,3.9,"Cc1cc(Cl)cc2sc(N(CCCn3ccnc3)C(=O)c3ccccc3)nc12 [Example 3, N-(3-(1H-imidazol-1-yl)propyl)-N-(6-chloro-4-methylbenzo[d]thiazol-2-yl)benzamide]"
12,13.2,"Cc1cc(Cl)cc2sc(N(CCCn3cc[n+](C)c3)C(=O)c3ccco3)nc12 [Example 29, 1-(3-(N-(6-chloro-4-methylbenzo[d]thiazol-2-yl)furan-2-carboxamido)propyl)-3-methyl-1H-imidazol-3-ium]"
13,29.6,"Cc1cc(Cl)cc2sc(N(CCCn3ccnc3)C(=O)C3CCCO3)nc12 (stereo not drawn) [Example 14, N-(3-(1H-imidazol-1-yl)propyl)-N-(6-chloro-4-methylbenzo[d]thiazol-2-yl)tetrahydrofuran-2-carboxamide]"
14,> 100,"Cc1cc(Cl)cc2sc(N(CCCn3cccc3)C(=O)c3ccco3)nc12 [Example 44, N-(6-chloro-4-methyl-1,3-benzothiazol-2-yl)-N-[3-(1H-pyrrol-1-yl)propyl]furan-2-carboxamide]"
15,8.8,"Cc1cc(Cl)cc2sc(N(CCCn3ccnc3)S(=O)(=O)c3ccco3)nc12 [Example 25, N-(3-(1H-imidazol-1-yl)propyl)-N-(6-chloro-4-methylbenzo[d]thiazol-2-yl)furan-2-sulfonamide]"
16,5.9,"Cc1cc(Cl)cc2sc(N(CCCn3ccnc3)C(=O)C3(C)CC3)nc12 [Example 18, N-(3-(1H-imidazol-1-yl)propyl)-N-(6-chloro-4-methylbenzo[d]thiazol-2-yl)-1-methylcyclopropanecarboxamide]"
17,> 100,"NCc1cccc2sc(N(CCCn3ccnc3)C(=O)c3ccco3)nc12 [Example 46, N-[4-(aminomethyl)-1,3-benzothiazol-2-yl]-N-[3-(1H-imidazol-1-yl)propyl]furan-2-carboxamide]"
